# Laboratory results reported in US8163771B2, “11 β-HSD1 modulators” (Exelixis, Inc., priority 2008, dated 2012).
# Target: T1, recombinant human 11 β-HSD1 (Homo sapiens, UniProt P28845)
# T1 construct: made in house; host or cells: E. coli
# Experiment: 11 β-HSD1 SPA Assay (Scintillation Proximity Assay)
# Assay type: biochemical
# Summary of the method: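 E. coli-expressed human enzyme (30-100 nM) with tritiated cortisone 40 nM and NADPH 1 mM in HEPES buffer pH7.4, 2 hours at room temperature. Stopped with protein A SPA beads carrying anti-cortisol antibody and glycyrrhetinic acid; counted after overnight incubation. IC50 from percent inhibition between no-enzyme and no-compound signals.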
# T1 sequence (P28845 whole entry): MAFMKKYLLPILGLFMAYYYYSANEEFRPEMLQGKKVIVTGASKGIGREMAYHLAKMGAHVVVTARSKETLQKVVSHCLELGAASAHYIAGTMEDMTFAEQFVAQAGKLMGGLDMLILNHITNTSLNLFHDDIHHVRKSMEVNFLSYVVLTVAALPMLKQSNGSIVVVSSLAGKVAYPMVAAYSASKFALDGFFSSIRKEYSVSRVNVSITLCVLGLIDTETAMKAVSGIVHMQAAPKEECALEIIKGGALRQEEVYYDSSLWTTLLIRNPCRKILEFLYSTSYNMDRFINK
row,SMILES,IC50
1,"CC(C)(Oc1cc(F)c(F)cc1Cl)C(=O)N[C@H]1C[C@H]2CC[C@@H](C1)N2c1ccc(S(N)(=O)=O)cn1 [Example 262, N-{8-[5-(aminosulfonyl)pyridin-2-yl]-8-azabicyclo[3.2.1]oct-3-endo-yl}-2-[(2-chloro-4,5-difluorophenyl)oxy]-2-methylpropanamide]",< 200 nM
2,"COCCOc1cc(OC(C)(C)C(=O)N[C@H]2C[C@H]3CC[C@@H](C2)N3c2ccc(C(=O)NCC(F)(F)F)cn2)c(Cl)cc1Cl [Example 382, 6-[3-endo-({2-[2,4-dichloro-5-(2-methoxyethoxy)phenoxy]-2-methylpropanoyl}amino)-8-azabicyclo[3.2.1]oct-8-yl]-N-(2,2,2-trifluoroethyl)pyridine-3-carboxamide]",< 200 nM
3,"CC(C)(Oc1ccc(Cl)cc1)C(=O)N[C@H]1C[C@H]2CC[C@@H](C1)N2c1ccc(C#N)cn1 [Example 32, 2-[(4-chlorophenyl)oxy]-N-[8-(5-cyanopyridin-2-yl)-8-azabicyclo[3.2.1]oct-3-endo-yl]-2-methylpropanamide]",< 200 nM
4,"CC(=O)Nc1ccc(N2[C@@H]3CC[C@H]2C[C@@H](NC(=O)C(C)(C)Oc2ccc(Cl)cc2Cl)C3)cc1 [Example 115, N-{8-[4-(acetylamino)phenyl]-8-azabicyclo[3.2.1]oct-3-endo-yl}-2-[(2,4-dichlorophenyl)oxy]-2-methylpropanamide]",< 200 nM
5,"CC(C)(Oc1ccc(Cl)cc1Cl)C(=O)N[C@H]1C[C@H]2CC[C@@H](C1)N2c1ccc(C#N)cn1 [Example 55, N-[8-(5-cyanopyridin-2-yl)-8-azabicyclo[3.2.1]oct-3-endo-yl]-2-[(2,4-dichlorophenyl)oxy]-2-methylpropanamide]",< 200 nM
6,"CC(C)(Oc1ccc2ccccc2c1)C(=O)N[C@H]1C[C@H]2CC[C@@H](C1)N2c1ccc(C(N)=O)cn1 [Example 316, 6-(3-endo-{[2-methyl-2-(naphthalen-2-yloxy)propanoyl]amino}-8-azabicyclo[3.2.1]oct-8-yl)pyridine-3-carboxamide]",< 200 nM
7,"CC(C)(Oc1cc(C(C)(C)O)c(F)cc1F)C(=O)N[C@H]1C[C@H]2CC[C@@H](C1)N2c1ccc(C(=O)NCC(F)F)cn1 [Example 468, N-(2,2-difluoroethyl)-6-[3-endo-({2-[2,4-difluoro-5-(2-hydroxypropan-2-yl)phenoxy]-2-methylpropanoyl}amino)-8-azabicyclo[3.2.1]oct-8-yl]pyridine-3-carboxamide]",< 200 nM
8,"CC(C)(Oc1ccc(Cl)c(F)c1)C(=O)N[C@H]1C[C@H]2CC[C@@H](C1)N2c1ccc(S(C)(=O)=O)cn1 [Example 240, 2-[(4-chloro-3-fluorophenyl)oxy]-2-methyl-N-{8-[5-(methylsulfonyl)pyridin-2-yl]-8-azabicyclo[3.2.1]oct-3-endo-yl}propanamide]",< 200 nM
9,"CC(C)(Oc1cc(F)c(F)cc1F)C(=O)N[C@H]1C[C@H]2CC[C@@H](C1)N2c1ccc(S(C)(=O)=O)cc1 [Example 234, 2-methyl-N-{8-[4-(methylsulfonyl)phenyl]-8-azabicyclo[3.2.1]oct-3-endo-yl}-2-[(2,4,5-trifluorophenyl)oxy]propanamide]",< 2000 nM
10,"CC(C)(Oc1ccc(F)cc1C(F)(F)F)C(=O)N[C@H]1C[C@H]2CC[C@@H](C1)N2c1ccc(C(=O)NCC(F)F)cn1 [Example 372, N-(2,2-difluoroethyl)-6-[3-endo-({2-[4-fluoro-2-(trifluoromethyl)phenoxy]-2-methylpropanoyl}amino)-8-azabicyclo[3.2.1]oct-8-yl]pyridine-3-carboxamide]",< 200 nM
11,"CC(C)(Oc1ccc(Cl)c(F)c1)C(=O)N[C@H]1C[C@H]2CC[C@@H](C1)N2c1ccc(S(C)(=O)=O)cc1 [Example 241, 2-[(4-chloro-3-fluorophenyl)oxy]-2-methyl-N-{8-[4-(methylsulfonyl)phenyl]-8-azabicyclo[3.2.1]oct-3-endo-yl}propanamide]",< 2000 nM
12,"CC(C)(Oc1ccc(Cl)cc1Cl)C(=O)N[C@H]1C[C@H]2CC[C@@H](C1)N2c1ccc(C(=O)Nc2ccon2)cn1 [Example 386, 6-(3-endo-{[2-(2,4-dichlorophenoxy)-2-methylpropanoyl]amino}-8-azabicyclo[3.2.1]oct-8-yl)-N-(isoxazol-3-yl)pyridine-3-carboxamide]",< 200 nM
13,"CC(C)(Oc1ccc(Cl)cc1Cl)C(=O)N[C@H]1C[C@H]2CC[C@@H](C1)N2c1ccc(C(=O)NCC(=O)C(F)(F)F)cn1 [Example 476, 6-(3-endo-{[2-(2,4-dichlorophenoxy)-2-methylpropanoyl]amino}-8-azabicyclo[3.2.1]oct-8-yl)-N-(3,3,3-trifluoro-2-oxopropyl)pyridine-3-carboxamide]",< 200 nM
14,"CC(C)(Oc1ccc(C(F)(F)F)cc1)C(=O)N[C@H]1C[C@H]2CC[C@@H](C1)N2c1ccc(S(N)(=O)=O)cn1 [Example 244, N-{8-[5-(aminosulfonyl)pyridin-2-yl]-8-azabicyclo[3.2.1]oct-3-endo-yl}-2-methyl-2-{[4-(trifluoromethyl)phenyl]oxy}propanamide]",< 2000 nM
15,"CC(C)(Oc1ccc(Cl)cc1Cl)C(=O)N[C@H]1C[C@H]2CC[C@@H](C1)N2c1ccc(C(=O)NC2CCOCC2)cn1 [Example 378, 6-(3-endo-{[2-(2,4-dichlorophenoxy)-2-methylpropanoyl]amino}-8-azabicyclo[3.2.1]oct-8-yl)-N-(tetrahydro-2h-pyran-4-yl)pyridine-3-carboxamide]",< 200 nM
16,"CC(C)(Oc1ccc(C(F)(F)F)cc1Cl)C(=O)N[C@H]1C[C@H]2CC[C@@H](C1)N2c1ccc(C(N)=O)cn1 [Example 183, 6-{3-endo-[(2-{[2-chloro-4-(trifluoromethyl)phenyl]oxy}-2-methylpropanoyl)amino]-8-azabicyclo[3.2.1]oct-8-yl}pyridine-3-carboxamide]",< 200 nM
17,"CC(C)(Oc1ccc(F)c(C(F)(F)F)c1)C(=O)N[C@H]1C[C@H]2CC[C@@H](C1)N2c1ccc(C(=O)NCC(F)(F)F)cn1 [Example 188, 6-{3-endo-[(2-{[4-fluoro-3-(trifluoromethyl)phenyl]oxy}-2-methylpropanoyl)amino]-8-azabicyclo[3.2.1]oct-8-yl}-N-(2,2,2-trifluoroethyl)pyridine-3-carboxamide]",< 200 nM
18,"CC(C)(Oc1cc(C(C)(C)C(=O)O)c(Cl)cc1Cl)C(=O)N[C@H]1C[C@H]2CC[C@@H](C1)N2c1ccc(C(=O)NCC(F)(F)F)cn1 [Example 445, 2-[2,4-dichloro-5-({2-methyl-1-oxo-1-[(8-{5-[(2,2,2-trifluoroethyl)carbamoyl]pyridin-2-yl}-8-azabicyclo[3.2.1]oct-3-endo-yl)amino]propan-2-yl}oxy)phenyl]-2-methylpropanoic acid]",< 200 nM
19,"CC(C)(Oc1cc(C(F)(F)F)ccc1F)C(=O)N[C@H]1C[C@H]2CC[C@@H](C1)N2c1ccc(S(C)(=O)=O)cn1 [Example 335, 2-{[2-fluoro-5-(trifluoromethyl)phenyl]oxy}-2-methyl-N-{8-[5-(methylsulfonyl)pyridin-2-yl]-8-azabicyclo[3.2.1]oct-3-endo-yl}propanamide]",< 2000 nM
20,"CC(C)NC(=O)c1ccc(N2[C@@H]3CC[C@H]2C[C@@H](NC(=O)C(C)(C)Oc2ncc(Cl)cc2Cl)C3)nc1 [Example 400, 6-(3-endo-(2-(3,5-dichloropyridin-2-yloxy)-2-methylpropanamido)-8-azabicyclo[3.2.1]octan-8-yl)-N-isopropylnicotinamide]",< 200 nM
21,"CC(C)(Oc1cc(C(F)(F)F)ccc1F)C(=O)N[C@H]1C[C@H]2CC[C@@H](C1)N2c1ccc(C(=O)NCC(F)(F)F)cn1 [Example 190, 6-{3-endo-[(2-{[2-fluoro-5-(trifluoromethyl)phenyl]oxy}-2-methylpropanoyl)amino]-8-azabicyclo[3.2.1]oct-8-yl}-N-(2,2,2-trifiuoroethyl)pyridine-3-carboxamide]",< 200 nM
22,"CC(C)(Oc1ccc(Cl)cc1OC(F)(F)F)C(=O)NC1CC2CCC(C1)N2c1ccc(C(=O)N2CCC[C@H]2CO)cn1 (stereo partly drawn) [Example 455, 2-[4-chloro-2-(trifluoromethoxy)phenoxy]-n-[8-(5-{[(2s)-2-(hydroxymethyl)pyrrolidin-1-yl]carbonyl}pyridin-2-yl)-8-azabicyclo[3.2.1]oct-3-endo-yl]-2-methylpropanamide]",< 200 nM
23,"CC(C)(Oc1ccccc1OC(F)(F)F)C(=O)N[C@H]1C[C@H]2CC[C@@H](C1)N2c1ccc(C(=O)NCC(F)(F)F)cn1 [Example 347, 6-[3-endo-({2-methyl-2-[2-(trifluoromethoxy)phenoxy]propanoyl}amino)-8-azabicyclo[3.2.1]oct-8-yl]-N-(2,2,2-trifluoroethyl)pyridine-3-carboxamide]",< 200 nM
24,"CC(C)(Oc1ccc(Cl)cc1S(C)(=O)=O)C(=O)N[C@H]1C[C@H]2CC[C@@H](C1)N2c1ccc(C(=O)NCC(F)(F)F)cn1 [Example 321, 6-{3-endo-[(2-{[4-chloro-2-(methylsulfonyl)phenyl]oxy}-2-methylpropanoyl)amino]-8-azabicyclo[3.2.1]oct-8-yl}-N-(2,2,2-trifluoroethyl)pyridine-3-carboxamide]",< 200 nM
25,"CC(C)NC(=O)c1ccc(N2[C@@H]3CC[C@H]2C[C@@H](NC(=O)C(C)(C)Oc2cc(C(C)(C)O)c(Cl)cc2Cl)C3)nc1 [Example 477, 6-[3-endo-({2-[2,4-dichloro-5-(2-hydroxypropan-2-yl)phenoxy]-2-methylpropanoyl}amino)-8-azabicyclo[3.2.1]oct-8-yl]-N-(propan-2-yl)pyridine-3-carboxamide]",< 200 nM
26,"CC(C)NC(=O)c1ccc(N2[C@@H]3CC[C@H]2C[C@@H](NC(=O)C(C)(C)Oc2ccc(Cl)cc2C(F)(F)F)C3)nc1 [Example 370, 6-[3-endo-({2-[4-chloro-2-(trifluoromethyl)phenoxy]-2-methylpropanoyl}amino)-8-azabicyclo[3.2.1]oct-8-yl]-N-(propan-2-yl)pyridine-3-carboxamide]",< 200 nM
